# Test results taken from patent publication US20250197864A1, “LNCRNA TRANSCRIPTS IN MELANOMAGENESIS” (The Regents of the University of California, priority 2021, published 2025).
# Experiments:
# [1] = test system: Caspase 3+7; assay: Caspase Glo 3/7 assay in D04 cell line; format: cell-based, human; settings: ASO 50 nM, 1 day, vs control ASOs
# Procedure: Dependent on cell doubling time, 2-3×10^^3 cells were seeded in 96 well plates. 1 day after seeding cells were incubated in media with 50 nM oligonucleotide concentration and transfection reagent. 1 day after transfection Total luminescence was measured on the SynergyHT plate reader (BioTek) using Gen5 software. Experiments were performed in quadruplicates.
# [2] = test system: D04 melanoma cell line; assay: Cell viability assay (ATP quantitation); format: cell-based, human; settings: 50 nM, 5 days (120 hrs), vs non-targeting control
# Procedure: (§1) EsiRNA, siRNA and ASO GapmeRs were transfected in a final concentration of 50 nM unless mentioned otherwise and the transfection reagent Lipofectamine 3000 (2 ul/ml) was added according to the manufacturer's instructions.
# (§2) Dependent on cell doubling time, 0.7-2×10^^3 cells were seeded in 96 well plates. 1 day after seeding cells were incubated in media with oligonucleotide concentration and/or MEKi and transfection reagent. 3 (synergy experiments) or 5 (solely ASO) days after transfection Total luminescence was measured on the SynergyHT plate reader (BioTek) using Gen5 software.
# [3] = test system: MM415 melanoma cell line; assay: Cell viability assay (ATP quantitation); format: cell-based, human; settings: 50 nM, 5 days (120 hrs), vs non-targeting control
# Procedure: as §1, §2
# [4] = test system: melanoma cell lines; assay: Cell viability assay (ATP quantitation), melanoma panel; format: cell-based, human; settings: 50 nM oligonucleotide, 72 hours, vs non-targeting pooled siRNA
# Text: Human melanoma cell line VMM39 was purchased from American Type Culture Collection (ATCC). Human melanoma cell lines D04, MM415, WM1366, WM3629, WM3211, Sk-Mel-2 and Sk-Mel-28 were a generous gift from Boris Bastian at the University of California, San Francisco. Primary human melanoma cell line Hs852.T was purchased from the Cell Culture Core Facility (CCCF) at the University of California, San Francisco. Primary human melanoma cell line AV5 was obtained from metastasis of a melanoma patient. All experimental protocols were approved by UCSF Human Research Protection Program Institutional Review Board (IRB #12-0948), all patients signed informed consent, and methods were carried out in accordance with relevant guidelines and regulations. Resistant cell lines DO4RM, MM415RM, Sk-Mel-2RM and WM3629RM were established as previously described. [Sanlorenzo, M. et al., The lincRNA MIRAT binds to IQGAPI and modulates the MAPK pathway in NRAS mutant melanoma. Sci Rep 8, 10902 (2018).] Primary human melanocytic cell lines (PHM) from infant foreskin of five healthy donors were available in our cell repository and pooled. […]
# Dependent on cell doubling time, 0.7-2×10^^3 cells were seeded in 96 well plates. […] 3 (synergy experiments) or 5 (solely ASO) days after transfection Total luminescence was measured on the SynergyHT plate reader (BioTek) using Gen5 software.
# [5] = test system: AC004540.4 (TRASH) in D04 cells; assay: MEK-inhibitor-induced upregulation, RT-qPCR; format: cell-based, human; settings: 72 hours, vs DMSO, normalized to GAPDH
# Procedure: (§3) TRIzol, Phenol:chloroform:isoamyl alcohol (125:24:1) or NucleoSpin RNA kit (TaKaRa) was used for extracting Total RNA from cells and tissues according to the manufacturer's instructions. Total RNA was quantified by NanoDrop ND-1000 (Thermo Scientific) or Quibit 4 (Thermo Fisher). 50 ng or RNA was reverse transcribed using the cDNA synthesis and gDNA removal QuantiTect Reverse Transcription Kit. Real time PCR was performed using the iTaq Universal SYBR Green Supermix, 10 ng (20 ng for RIP Assay) of cDNA and on a QuantStudio™ 5 Real-Time PCR System or a 7500 fast real time PCR system. Relative gene expression was calculated using the comparative Ct method, normalized to GAPDH or β-actin. Primer sequences are listed in Supplementary Table 1.
# (§4) Cells were either treated with trametinib (MEKi) or DMSO (control). Treatment period was 72 hours. CT-values were normalized to GAPDH, error bars represent standard deviation. All experiments were performed in triplicates (n=3/group). (FIG. 5b)
# [6] = test system: AC004540.4 (TRASH) in MM415 cells; assay: MEK-inhibitor-induced upregulation, RT-qPCR; format: cell-based, human; settings: 72 hours, vs DMSO
# Procedure: as §3, §4
# [7] = test system: D04RM trametinib resistant melanoma cell line; assay: Cell viability assay (ATP quantitation); format: cell-based; settings: 50 nM, 5 days, vs non-targeting control
# Text: (§5) Human melanoma cell line VMM39 was purchased from American Type Culture Collection (ATCC). Human melanoma cell lines D04, MM415, WM1366, WM3629, WM3211, Sk-Mel-2 and Sk-Mel-28 were a generous gift from Boris Bastian at the University of California, San Francisco. Primary human melanoma cell line Hs852.T was purchased from the Cell Culture Core Facility (CCCF) at the University of California, San Francisco. Primary human melanoma cell line AV5 was obtained from metastasis of a melanoma patient. All experimental protocols were approved by UCSF Human Research Protection Program Institutional Review Board (IRB #12-0948), all patients signed informed consent, and methods were carried out in accordance with relevant guidelines and regulations. Resistant cell lines DO4RM, MM415RM, Sk-Mel-2RM and WM3629RM were established as previously described. [Sanlorenzo, M. et al., The lincRNA MIRAT binds to IQGAPI and modulates the MAPK pathway in NRAS mutant melanoma. Sci Rep 8, 10902 (2018).] Primary human melanocytic cell lines (PHM) from infant foreskin of five healthy donors were available in our cell repository and pooled. Melanoma cell lines were maintained in RPMI 1640 media supplemented with 10% (vol/vol) heat inactivated fetal bovine serum. Melanocytes were maintained in M254 medium with HMGS supplements (1× final solution). All cell lines were incubated at 37° C. under 5% CO2.
# as §1, §2
# [8] = test system: MM415RM trametinib resistant melanoma cell line; assay: Cell viability assay (ATP quantitation); format: cell-based; settings: 50 nM, 5 days, vs non-targeting control
# Text: as §5, §1, §2
# [9] = test system: Sk-Mel-2-RM trametinib resistant melanoma cell line; assay: Cell viability assay (ATP quantitation); format: cell-based; settings: 50 nM, 5 days, vs non-targeting control
# Text: as §5, §1, §2
# [10] = test system: WM3629RM trametinib resistant melanoma cell line; assay: Cell viability assay (ATP quantitation); format: cell-based; settings: 50 nM, 5 days, vs non-targeting control
# Text: as §5, §1, §2
# [11] = test system: SW480 colon carcinoma cell line; assay: Cell viability assay (ATP quantitation); format: cell-based; settings: 50 nM, 5 days, vs non-targeting control
# Procedure: as §1, §2
# [12] = test system: A-172 Glioblastoma cell line; assay: Cell viability assay (ATP quantitation); format: cell-based; settings: 50 nM, 5 days, vs non-targeting control
# Procedure: as §1, §2
# [13] = test system: Sk-Mel-5 melanoma cell line; assay: Cell viability assay (ATP quantitation); format: cell-based; settings: 50 nM, 5 days, vs non-targeting control
# Procedure: as §1, §2
# [14] = test system: H929 multiple myeloma cell line; assay: Cell viability assay (ATP quantitation); format: cell-based; settings: 50 nM, 5 days, vs non-targeting control
# Procedure: as §1, §2
# [15] = test system: U20S osteosarcoma cell line; assay: Cell viability assay (ATP quantitation); format: cell-based; settings: 50 nM, 5 days, vs non-targeting control
# Procedure: as §1, §2
# [16] = test system: H82 lung cancer cell line; assay: Cell viability assay (ATP quantitation); format: cell-based; settings: 50 nM, 5 days, vs non-targeting control
# Procedure: as §1, §2
# [17] = test system: Hs940.T melanoma cell line; assay: Cell viability assay (ATP quantitation); format: cell-based; settings: 50 nM, 5 days, vs non-targeting control
# Procedure: as §1, §2
# [18] = test system: H2228 lung cancer cell line; assay: Cell viability assay (ATP quantitation); format: cell-based; settings: 50 nM, 5 days, vs non-targeting control
# Procedure: as §1, §2
# [19] = test system: U87-MG Glioblastoma cell line; assay: Cell viability assay (ATP quantitation); format: cell-based; settings: 50 nM, 5 days, vs non-targeting control
# Procedure: as §1, §2
# [20] = test system: SW1271 lung cancer cell line; assay: Cell viability assay (ATP quantitation); format: cell-based; settings: 50 nM, 5 days, vs non-targeting control
# Procedure: as §1, §2
# [21] = test system: AV4 melanoma cell line; assay: Cell viability assay (ATP quantitation); format: cell-based; settings: 50 nM, 5 days, vs non-targeting control
# Procedure: as §1, §2
# [22] = test system: Sk-N-AS Neuroblastoma cell line; assay: Cell viability assay (ATP quantitation); format: cell-based; settings: 50 nM, 5 days, vs non-targeting control
# Procedure: as §1, §2
# [23] = test system: HCT116 colon carcinoma cell line; assay: Cell viability assay (ATP quantitation); format: cell-based; settings: 50 nM, 5 days, vs non-targeting control
# Procedure: as §1, §2
# [24] = test system: U138-MG Glioblastoma cell line; assay: Cell viability assay (ATP quantitation); format: cell-based; settings: 50 nM, 5 days, vs non-targeting control
# Procedure: as §1, §2
# [25] = test system: T98G Glioblastoma cell line; assay: Cell viability assay (ATP quantitation); format: cell-based; settings: 50 nM, 5 days, vs non-targeting control
# Procedure: as §1, §2
# [26] = test system: WM3060 melanoma cell line; assay: Cell viability assay (ATP quantitation); format: cell-based; settings: 50 nM, 5 days, vs non-targeting control
# Procedure: as §1, §2
# [27] = test system: H1299 lung cancer cell line; assay: Cell viability assay (ATP quantitation); format: cell-based; settings: 50 nM, 5 days, vs non-targeting control
# Procedure: as §1, §2
# [28] = test system: MM485 melanoma cell line; assay: Cell viability assay (ATP quantitation); format: cell-based; settings: 50 nM, 5 days, vs non-targeting control
# Procedure: as §1, §2
# [29] = test system: A375 melanoma cell line; assay: Cell viability assay (ATP quantitation); format: cell-based; settings: 50 nM, 5 days, vs non-targeting control
# Procedure: as §1, §2
# [30] = test system: Sk-Mel-28 melanoma cell line; assay: Cell viability assay (ATP quantitation); format: cell-based, human; settings: 50 nM, 5 days (120 hrs), vs non-targeting control
# Procedure: as §1, §2
# [31] = test system: WM1366 melanoma cell line; assay: Cell viability assay (ATP quantitation); format: cell-based, human; settings: 50 nM, 5 days (120 hrs), vs non-targeting control
# Procedure: as §1, §2
# [32] = test system: Hs852.T primary melanoma cell line; assay: Cell viability assay (ATP quantitation); format: cell-based, human; settings: 50 nM, 5 days (120 hrs), vs non-targeting control
# Procedure: as §1, §2
# [33] = test system: AV5 primary melanoma cell line; assay: Cell viability assay (ATP quantitation); format: cell-based, human; settings: 50 nM, 5 days (120 hrs), vs non-targeting control
# Procedure: as §1, §2
# [34] = test system: Sk-Mel-2 melanoma cell line; assay: Cell viability assay (ATP quantitation); format: cell-based, human; settings: 50 nM, 5 days (120 hrs), vs non-targeting control
# Procedure: as §1, §2
# [35] = test system: WM3629 melanoma cell line; assay: Cell viability assay (ATP quantitation); format: cell-based, human; settings: 50 nM, 5 days (120 hrs), vs non-targeting control
# Procedure: as §1, §2
# [36] = test system: WM3211 melanoma cell line; assay: Cell viability assay (ATP quantitation); format: cell-based, human; settings: 50 nM, 5 days (120 hrs), vs non-targeting control
# Procedure: as §1, §2
# [37] = test system: VMM39 melanoma cell line; assay: Cell viability assay (ATP quantitation); format: cell-based, human; settings: 50 nM, 5 days (120 hrs), vs non-targeting control
# Procedure: as §1, §2
compound,measurement,setting,value
"GACCGTAGTTAGAAGG (GapmeR, chemically modified, pattern not given here) [SEQ ID NO: 48, GapmeR antisense oligonucleotide targeting HNRNPA2/B1]",Caspase-3 &-7 activity increase,[1],1.7 fold
same,cell viability decrease,[2],significant cell viability decrease
same,cell viability decrease,[2]; listed as hnRNPA2/B1i,significant cell viability decrease
"5′-ACAAAGAGAGACAGGAAAUUU-3′ (chain 2 AUUUCCUGUCUCUCUUUGUUU; listed as RNA, chemistry not given here) [SEQ ID NO:45]",cell viability decrease,[2],significant cell viability decrease
same,cell viability decrease,[3],significant cell viability decrease
same,cell viability decrease (RNAi screening),[4],significant cell viability decrease
CC(=O)Nc1cccc(-n2c(=O)n(C3CC3)c(=O)c3c(Nc4ccc(I)cc4F)n(C)c(=O)c(C)c32)c1 [trametinib],AC004540.4 (TRASH) upregulation,[5]; 20 nM MEKi,3.2 fold
same,AC004540.4 (TRASH) enrichment,[5]; 40 nM MEKi,5.4 fold
same,increase of AC004540.4 (TRASH)-expression,[6]; 20 nM MEKi,0.31 fold
same,increase of AC004540.4 (TRASH)-expression,[6]; second MEKi concentration (not given),0.36 fold
"AAGGAGGGTAAACGCT (chemistry not given here) [SEQ ID NO: 13, Antisense oligonucleotide targeting BX470102.3-008]",cell viability decrease,[7],significant cell viability decrease
same,cell viability decrease,[8],significant cell viability decrease
same,cell viability decrease,[9],significant cell viability decrease
same,cell viability decrease,[10],significant cell viability decrease
same,cell viability decrease,[11],significant cell viability decrease
same,cell viability decrease,[12],significant cell viability decrease
same,cell viability decrease,[13],significant cell viability decrease
same,cell viability decrease,[14],significant cell viability decrease
same,cell viability decrease,[15],significant cell viability decrease
same,cell viability decrease,[16],significant cell viability decrease
same,cell viability decrease,[17],significant cell viability decrease
same,cell viability decrease,[18],significant cell viability decrease
same,cell viability decrease,[19],significant cell viability decrease
same,cell viability decrease,[20],significant cell viability decrease
same,cell viability decrease,[21],significant cell viability decrease
same,cell viability decrease,[22],significant cell viability decrease
same,cell viability decrease,[23],significant cell viability decrease
same,cell viability decrease,[24],significant cell viability decrease
same,cell viability decrease,[25],significant cell viability decrease
same,cell viability decrease,[26],significant cell viability decrease
same,cell viability decrease,[27],significant cell viability decrease
same,cell viability decrease,[28],significant cell viability decrease
same,cell viability decrease,[29],significant cell viability decrease
same,cell viability decrease,[30],significant cell viability decrease
same,cell viability decrease,[2],significant cell viability decrease
same,cell viability decrease,[31],significant cell viability decrease
same,cell viability decrease,[32],significant cell viability decrease
same,cell viability decrease,[3],significant cell viability decrease
same,cell viability decrease,[33],significant cell viability decrease
same,cell viability decrease,[34],significant cell viability decrease
same,cell viability decrease,[35],significant cell viability decrease
same,cell viability decrease,[36],significant cell viability decrease
same,cell viability decrease,[37],significant cell viability decrease
